{"source": "patent US5051499A", "about": "“Novel nucleoside-phospholipid conjugate” (Toyo Jozo Kabushiki Kaisha, priority 1986, dated 1991)", "test_system": "P-388 leukemic cells", "experiment": "Antitumor activity against mouse leukemia P-388, increase in life span (ILS)", "assay_type": "in vivo", "set-up": "dose or concentration left out as unconfirmed", "settings": "P388, ip, 120 h, Table 2, i.p., once a day for 5 days, BDF1 mice", "description": "Antitumor activity against mouse leukemia P-388 carcinoma is shown in the ensuring examples, according to the following list of specifications:\n2. Animal: BDF1 mice, age 5 weeks, male, Charles River Inc., 5 mice in an experimental group at 7 control mice.\n3. Tumor cells: P-388 leukemic cells; 1×10^6 /0.2 ml are inoculated intraperitoneally in BDF1 mice of the experimental group.\n4. Preparation of samples and administration of drugs:\nSamples are suspended in Tris-HCl saline solution by sonification. 0.1 ml/10g body weight is administered.\nAdministration: starting one day after inoculation of tumor cells, once a day for 5 days intraperiotoneally.\n5. Increase in life span (ILS) is calculated by the following equation: [formula]\nAverage survival date in control group is 7.86 days (7.57-7.93 days)."}
{"smiles": "CCCCCCCCCCCCCCCCOCC(COP(=O)(O)OC[C@H]1O[C@@H](n2cc(F)c(N)nc2=O)[C@@H](O)[C@@H]1O)OCCCCCCCCCCCCCCCC", "note": "(stereo partly drawn) [cetyl cetyl AraFC]", "values": [{"measurement": "ILS", "value": 152, "unit": "%"}]}
{"smiles": "CCCCCCCCCCCCCCCCOCC(COP(=O)(O)OC[C@H]1O[C@@H](n2cc(F)c(=O)[nH]c2=O)[C@H](O)[C@@H]1O)OCCCCCCCCCCCCCCCC", "note": "(stereo partly drawn) [cetyl cetyl FUR]", "values": [{"measurement": "ILS", "value": 127, "unit": "%"}]}
{"smiles": "CCCCCCCCCCCCCCCCOCC(COP(=O)(O)OCC1=C[C@@H](n2cnc3c(N)ncnc32)[C@H](O)[C@@H]1O)OCCCCCCCCCCCCCCCC", "note": "(stereo partly drawn) [cetyl cetyl NepA]", "values": [{"measurement": "ILS", "value": 34.9, "unit": "%"}]}
{"smiles": "CCCCCCCC/C=C\\CCCCCCCCOCC(COP(=O)(O)OC[C@H]1O[C@@H](n2cc(F)c(N)nc2=O)[C@@H](O)[C@@H]1O)OCCCCCCCC/C=C\\CCCCCCCC", "note": "(stereo partly drawn) [oleyl oleeyl AraFC]", "values": [{"measurement": "ILS", "value": 148, "unit": "%"}]}
{"smiles": "CCCCCCCC/C=C\\CCCCCCCCOCC(COP(=O)(O)OC[C@H]1O[C@@H](n2cc(F)c(=O)[nH]c2=O)[C@H](O)[C@@H]1O)OCCCCCCCC/C=C\\CCCCCCCC", "note": "(stereo partly drawn) [oleyl oleyl FUR]", "values": [{"measurement": "ILS", "value": 76, "unit": "%"}]}
{"smiles": "CCCCCCCC/C=C\\CCCCCCCCOCC(COP(=O)(O)OCC1=C[C@@H](n2cnc3c(N)ncnc32)[C@H](O)[C@@H]1O)OCCCCCCCC/C=C\\CCCCCCCC", "note": "(stereo partly drawn) [oleyl oleyl NepA]", "values": [{"measurement": "ILS", "value": 26, "unit": "%"}]}
{"smiles": "CCCCCCCCCCCCCCCCCCOCC(COP(=O)(O)OC[C@H]1O[C@@H](n2cc(F)c(N)nc2=O)[C@@H](O)[C@@H]1O)OCCCCCCCCCCCCCCCCCC", "note": "(stereo partly drawn) [stearyl stearyl AraFC]", "values": [{"measurement": "ILS", "value": 61, "unit": "%"}]}
{"smiles": "CCCCCCCCCCCCCCCCCCOCC(COP(=O)(O)OC[C@H]1O[C@@H](n2cc(F)c(=O)[nH]c2=O)[C@H](O)[C@@H]1O)OCCCCCCCCCCCCCCCCCC", "note": "(stereo partly drawn) [stearyl stearyl FUR]", "values": [{"measurement": "ILS", "value": 31, "unit": "%"}]}
{"smiles": "CCCCCCCCCCCCCCCCCCOCC(COP(=O)(O)OCC1=C[C@@H](n2cnc3c(N)ncnc32)[C@H](O)[C@@H]1O)OCCCCCCCCCCCCCCCCCC", "note": "(stereo partly drawn) [stearyl stearyl NepA]", "values": [{"measurement": "ILS", "value": 31, "unit": "%"}]}
